ChEMBL document CHEMBL4433208, “N-Nitrosulfonamides as Carbonic Anhydrase Inhibitors: A Promising Chemotype for Targeting Chagas Disease and Leishmaniasis” (ACS Med Chem Lett, 2019)
Converted amounts (≈) assume the structure as drawn.

Tests used:
Leishmania amazonensis [1] = assay: microbe, parasite or virus in culture; assay type: functional; details: IFLA/BR/1967/PH8, 48 h
Description: Antileishmanial activity against Leishmania amazonensis IFLA/BR/1967/PH8 promastigotes after 48 hrs by resazurin dye based assay

Leishmania infantum [2] = assay: microbe, parasite or virus in culture; assay type: functional; details: MHOM/BR/1974/PP75, 48 h
Description: Antileishmanial activity against Leishmania infantum MHOM/BR/1974/PP75 promastigotes after 48 hrs by resazurin dye based assay

in vitro [3] = details: mouse, RAW264.7 cells
Description: Cytotoxicity against mouse RAW264.7 cells assessed as reduction in cell viability after 48 hrs by MTT assay

Leishmania amazonensis [4] = assay: microbe, parasite or virus in culture; assay type: functional, organism-based; details: IFLA/BR/1967/PH8, 48 h
Description: Antileishmanial activity against Leishmania amazonensis IFLA/BR/1967/PH8 promastigotes assessed as reduction in parasite viability IFLA/BR/1967/PH8 after 48 hrs by resazurin dye based assay

Leishmania infantum [5] = assay: microbe, parasite or virus in culture; assay type: functional, organism-based; details: MHOM/BR/1974/PP75, 48 h
Description: Antileishmanial activity against Leishmania infantum MHOM/BR/1974/PP75 promastigotes assessed as reduction in parasite viability after 48 hrs by resazurin dye based assay

Trypanosoma cruzi [6] = assay: microbe, parasite or virus in culture; assay type: functional; details: Dm28c, 48 h
Description: Antitrypanosomal activity against Trypanosoma cruzi Dm28c epimastigotes after 48 hrs by resazurin dye based assay

in vitro [7] = details: chlorocebus sabaeus, Vero cells
Description: Cytotoxicity against African green monkey Vero cells 72 hrs by CellTiter-Glo assay

Trypanosoma cruzi [8] = assay: microbe, parasite or virus in culture; assay type: functional; details: Y
Description: Antitrypanosomal activity against Trypanosoma cruzi Y epimastigotes resazurin dye based assay

Structure (SMILES)	MIC (Leishmania amazonensis [1]) [µM]	MIC (Leishmania infantum [2]) [µM]	CC50 at 48 h (in vitro [3]) [nM]	IC50 (Leishmania amazonensis [4]) [nM]	IC50 (Leishmania infantum [5]) [nM]	MIC (Trypanosoma cruzi [6]) [µM]	CC50 at 72 h (in vitro [7]) [nM]	MIC (Trypanosoma cruzi [8]) [µM]
C[C@@H]1[C@H](O)[C@@H](C)/C=C/C=C/C=C/C=C/C=C/C=C/C=C/[C@H](O[C@@H]2O[C@H](C)[C@@H](O)[C@H](N)[C@@H]2O)C[C@@H]2O[C@](O)(C[C@@H](O)C[C@@H](O)[C@H](O)CC[C@@H](O)C[C@@H](O)CC(=O)O[C@H]1C)C[C@H](O)[C@H]2C(=O)O [AMPHOTERICIN B]	8 (≈ 7.39 µg/mL)	8 (≈ 7.39 µg/mL)	1000	1650	1770	–	–	–
O=C(Cn1ccnc1[N+](=O)[O-])NCc1ccccc1 [BENZNIDAZOLE]	–	–	138000	–	–	32 (≈ 8.33 µg/mL)	> 500000	32 (≈ 8.33 µg/mL)
